Patent publication US6730655B2, “Biphenyl diquaternary ammonium compounds” (Ciba Specialty Chemicals Corporation, priority 2000, dated 2004)

Experiments:
[1] = system: Candida albicans ATCC 10231; details: Sabouraud agar, 2 days at 37° C.
Excerpt: (§1) Determination of the Minimum Inhibitory Concentration (MIC Value)
(§2) The procedure to determine the antimicrobial activity of the compounds of the invention is as follows:
(§3) Casein/soybean flour peptone bouillon for the preparation of pre-cultures of the test bacteria and yeast.
(§4) Sabouraud agar for determining the MIC value of Aspergillus niger and Candida albicans.
(§5) deionised water or EtOH as solvent.
(§6) The test substances are predissolved in deionised water or in ethanol and incorporated in a dilution series in agar warmed to 47-50° C.
(§7) Bacteria and yeast are incubated for from 18 to 24 hours at 37° C. in casein/soybean flour peptone bouillon.
(§8) All the test organisms are adjusted to an organism count of from 10^6 to 10^7 CFU/ml using 0.85% sodium chloride solution.
(§9) The organism suspensions are each pipetted in an amount of 10 μl onto an agar plate containing the test substance. The test batches are then incubated for 2 days at 37° C. (bacteria and yeast) or for 3 days at 28° C. (Aspergillus niger). In order to check the influence of the solvent used (deionised water, ethanol), organism suspensions are in addition incubated on agar plates without test substances (control plates).
(§10) After incubation, the growth of the microorganisms on the test substances is compared with the control plates. The minimum inhibitory concentration (MIC value) is the concentration of substance at which (compared with the control plates) a clear inhibition of growth of the test organisms is to be ascertained.
(§11) The microbiological data ascertained are compiled in Table 1.

[2] = system: Escherichia coli NCTC 8196; details: Mueller Hinton agar, 2 days at 37° C.
Excerpt: as §1, §2, §3
(§12) Mueller Hinton agar for determining the MIC value of bacteria.
as §5, §6, §7, §8, §9, §10, §11

[3] = system: Staphylococcus hominis DSM 20328; details: Mueller Hinton agar, 2 days at 37° C.
Excerpt: as §1, §2, §3, §12, §5, §6, §7, §8, §9, §10, §11

[4] = system: Staphylococcus aureus ATCC 6538; details: test substance 1600 ppm, contact time 5 minutes at 20° C., 0.3% bovine serum albumin
Method: Suspension Test to Determine the Bactericidal Activity in Accordance with the European Standard According to EN 1276
Staphylococcus aureus ATCC 6538.
5 minutes at 20° C. (+/−1° C.).
Inactivation Medium After the Contact Time
D/E neutralisation solution (Dey-Engley, consisting of 0.1% sodium thioglycolate,
0.5% Tween 80, and also 0.7% lecithin and sterile, deionised water ad 100%).
Casein/soybean flour peptone agar with lecithin, L-histidine, and Tween 80 as inactivating agent
(Merckoplate No. 18360, Merck-Darmstadt).
Incubation of the Test Plates
Precaration of the Pre-Culture
The bacteria cultures are cultured on casein/soybean flour peptone slant agar and incubated for from 18 to 24 hours at 37° C. They are then rinsed off with water and adjusted to a bacteria count of 1.5×10^8-5×10^8 CFU/ml.
All of the reagents required for the test are first equilibrated at 20° C. (+/−1° C.). 1.0 ml of 0.3% bovine serum albumin (in deionised water) is introduced into a test tube. After the addition of 1.0 ml of bacteria suspension (1.5×10^8-5×10^8 CFU/ml), the solution is mixed and maintained at 20° C. for 2 minutes (+/−10 seconds). 8.0 ml of the test substance (2000 ppm solution in water) are then added. The mixture is incubated for 5 minutes at 20° C. (+/−1° C.). […] After the period of incubation, the number of colonies is counted and quoted as a logarithmic reduction (log 10) of the bacteria.

[5] = system: Aspergillus niger ATCC 6275; details: Sabouraud agar, 3 days at 28° C.
Method: as §1, §2
Sabouraud agar for the pre-culture of Aspergillus niger.
as §4, §5, §6
The mould is cultured on Sabouraud agar and rinsed off with 0.85% sodium chloride solution containing 0.01% Triton X-100.
as §8, §9, §10, §11

Row | Structure (SMILES) | MIC values C. albicans [1] | MIC values E. coli [2] | MIC values S. hominis [3] | Logarithmic reduction Staphylococcus aureus [4] | MIC values A. niger [5]
1 | CCCCCC[N+](C)(C)Cc1ccc(-c2ccc(C[N+](C)(C)CCCCCC)cc2)cc1.[Cl-].[Cl-] [Compound of formula (2), 4,4′-Bis(N,N-dimethyl-N-hexyl-ammoniummethyl)biphenyl dichloride] | 50 ppm | 5 ppm | 50 ppm | 5.6 log 10 | 2.5 ppm
2 | CCCCCCCC[N+](C)(C)Cc1ccc(-c2ccc(C[N+](C)(C)CCCCCCCC)cc2)cc1.[Cl-].[Cl-] [Compound of formula (3), 4,4′-Bis(N,N-dimethyl-N-octyl-ammoniummethyl)biphenyl dichloride] | 10 ppm | 1 ppm | 5 ppm | 5.6 log 10 | 2.5 ppm
3 | CCCCCCCCCCCC[N+](C)(C)Cc1ccc(-c2ccc(C[N+](C)(C)CCCCCCCCCCCC)cc2)cc1.[Cl-].[Cl-] [Compound of formula (4), 4,4′-Bis(N,N-dimethyl-N-dodecyl-ammoniummethyl)biphenyl dichloride] | 25 ppm | 250 ppm | 10 ppm | – | 100 ppm
4 | CCCCCCCCCCCCCCCC[N+](C)(C)Cc1ccc(-c2ccc(C[N+](C)(C)CCCCCCCCCCCCCCCC)cc2)cc1.[Cl-].[Cl-] [Compound of formula (5), 4,4′-Bis(N,N-dimethyl-N-hexadecyl-ammoniummethyl)biphenyl dichloride] | 500 ppm | 1000 ppm | 100 ppm | – | 1000 ppm
